Source: the supplement of paper PMC10307832

What was measured:
Experiment in all cases: relative viability (nuclei count vs DMSO), 5 days (fraction); higher = more cells survive
QS11 + Tozasertib = compound: C1CC2=C(C1)C=C(C=C2)OC3=NC(=C4C(=N3)N(C=N4)CC5=CC=C(C=C5)C6=CC=CC=C6)N[C@@H](CC7=CC=CC=C7)CO [QS11] + Cc1cc(Nc2cc(N3CCN(C)CC3)nc(Sc3ccc(NC(=O)C4CC4)cc3)n2)n[nH]1 [Tozasertib] (partner 0.1 µM)
Summary of the method: (§1)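 Relative viability was taken as the ratio of nuclei in treated wells to nuclei in vehicle wells. Lung cancer cell lines in 1536-well plates received compounds by pin tool one day after seeding, either one drug alone or a fixed anchor-drug dose plus five library-drug doses (not always all listed) in √10 steps. Nuclei were counted on 4× images after 5 days of treatment, and values are medians of duplicate plates.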

AZ628 + Pemetrexed = compound: CC1=C(C=C(C=C1)NC(=O)C2=CC(=CC=C2)C(C)(C)C#N)NC3=CC4=C(C=C3)N=CN(C4=O)C [AZ628] + Nc1nc2[nH]cc(CCc3ccc(C(=O)N[C@@H](CCC(=O)O)C(=O)O)cc3)c2c(=O)[nH]1 [Pemetrexed] (partner 0.2 µM)
Summary of the method: as §1

Darinaparsin + Dasatinib = compound: C[As](C)SC[C@H](NC(=O)CC[C@H](N)C(=O)O)C(=O)NCC(=O)O [Darinaparsin] + Cc1nc(Nc2ncc(C(=O)Nc3c(C)cccc3Cl)s2)cc(N2CCN(CCO)CC2)n1 [Dasatinib] (partner 0.075 µM)
Summary of the method: as §1

[1] = compound: C[As](C)SC[C@H](NC(=O)CC[C@H](N)C(=O)O)C(=O)NCC(=O)O [Darinaparsin] + Nc1nc2[nH]cc(CCc3ccc(C(=O)N[C@@H](CCC(=O)O)C(=O)O)cc3)c2c(=O)[nH]1 [Pemetrexed] (partner 0.2 µM)
Summary of the method: as §1

Cell Line | relative viability (QS11 + Tozasertib; first compound 0.08 µM) | relative viability (QS11 + Tozasertib; first compound 0.253 µM) | relative viability (QS11 + Tozasertib; first compound 0.8 µM) | relative viability (QS11 + Tozasertib; first compound 2.53 µM) | relative viability (QS11 + Tozasertib; first compound 8 µM) | relative viability (AZ628 + Pemetrexed; first compound 0.08 µM) | relative viability (AZ628 + Pemetrexed; first compound 0.253 µM) | relative viability (AZ628 + Pemetrexed; first compound 0.8 µM) | relative viability (AZ628 + Pemetrexed; first compound 2.53 µM) | relative viability (AZ628 + Pemetrexed; first compound 8 µM) | relative viability (Darinaparsin + Dasatinib; first compound 0.08 µM) | relative viability (Darinaparsin + Dasatinib; first compound 2.53 µM) | relative viability (Darinaparsin + Dasatinib; first compound 8 µM) | relative viability ([1]; first compound 0.08 µM) | relative viability ([1]; first compound 0.8 µM) | relative viability ([1]; first compound 2.53 µM) | relative viability ([1]; first compound 8 µM) | relative viability (Darinaparsin + Dasatinib; first compound 0.8 µM)
NCI-H2347 | 0.434 | 0.523 | 0.51 | 0.436 | 0.572 | 0.401 | 0.415 | 0.354 | 0.464 | 0.321 | 0.286 | 0.306 | 0.289 | 0.444 | 0.396 | 0.408 | 0.477 | –
201T | 0.956 | 1.03 | 0.694 | 0.892 | 0.584 | 0.347 | 0.345 | 0.308 | 0.339 | 0.352 | 0.571 | 0.66 | 0.627 | 0.374 | 0.33 | 0.33 | 0.363 | 0.533
NCI-H358 | 0.099 | 0.106 | 0.108 | 0.101 | 0.109 | 0.172 | 0.159 | 0.152 | 0.142 | 0.142 | 0.135 | 0.17 | 0.162 | 0.176 | 0.162 | 0.172 | 0.18 | 0.157
NCI-H1993 | 0.563 | 0.573 | 0.605 | 0.669 | 0.616 | 0.631 | 0.598 | 0.47 | 0.488 | 0.461 | 0.68 | 0.535 | 0.575 | 0.617 | 0.66 | 0.599 | 0.64 | 0.532
NCI-H2009 | 0.756 | 0.789 | 0.595 | 0.58 | 0.434 | 1.1 | 1.09 | 1.05 | 1 | 0.464 | 0.307 | 0.266 | 0.233 | 1.09 | 1.07 | 1 | 1.08 | 0.32
EMC-BAC-2 | 0.297 | 0.292 | 0.279 | 0.274 | 0.238 | 0.481 | 0.494 | 0.476 | 0.516 | 0.589 | 0.34 | 0.302 | 0.35 | 0.452 | 0.44 | 0.53 | 0.472 | 0.368
NCI-H2023 | 0.381 | 0.38 | 0.276 | 0.222 | 0.219 | 0.272 | 0.208 | 0.193 | 0.201 | 0.125 | 0.724 | 0.352 | 0.729 | 0.335 | 0.231 | 0.202 | 0.227 | 0.656
RERF-LC-KJ | 0.521 | 0.429 | 0.42 | 0.274 | 0.274 | 0.475 | 0.474 | 0.464 | 0.508 | 0.467 | 0.916 | 0.621 | 0.758 | 0.513 | 0.441 | 0.448 | 0.484 | 0.87
H3255 | 0.639 | 0.853 | – | 0.651 | 0.589 | 0.563 | 0.486 | 0.597 | 0.537 | 0.504 | 0.355 | 0.317 | 0.338 | 0.576 | 0.587 | 0.522 | 0.54 | 0.346
HCC-827 | 0.389 | 0.416 | 0.315 | 0.433 | 0.457 | 0.258 | 0.209 | 0.256 | 0.314 | 0.226 | 0.268 | 0.243 | 0.309 | 0.256 | 0.268 | 0.254 | 0.263 | 0.397
LXF-289 | 0.159 | 0.197 | 0.147 | 0.213 | 0.253 | 0.939 | 0.722 | 0.893 | 0.866 | 0.678 | 0.228 | 0.164 | 0.213 | 0.888 | 0.962 | 0.894 | 0.965 | 0.204
NCI-H322M | 0.479 | 0.479 | 0.45 | 0.545 | 0.64 | 0.726 | 0.664 | 0.604 | 0.642 | 0.558 | 0.269 | 0.251 | 0.257 | 0.695 | 0.582 | 0.589 | 0.618 | 0.233
NCI-H2126 | 0.803 | 0.849 | 0.817 | 0.886 | 0.795 | 0.757 | 0.665 | 0.586 | 0.655 | 0.588 | 0.56 | 0.556 | 0.681 | 0.74 | 0.594 | 0.666 | 0.805 | 0.616
NCI-H2405 | 0.752 | 0.699 | 0.725 | 0.758 | 0.899 | 0.839 | 0.698 | 0.673 | 0.632 | 0.624 | 0.203 | 0.223 | 0.221 | 1.24 | 0.872 | 1.07 | 1.14 | 0.232
NCI-H1944 | 0.258 | 0.274 | – | 0.271 | 0.24 | 0.624 | 0.576 | 0.511 | 0.52 | 0.394 | 0.203 | 0.208 | 0.192 | 0.663 | 0.687 | 0.649 | 0.57 | 0.2
NCI-H520 | 0.465 | 0.454 | 0.503 | 0.418 | 0.407 | 0.669 | 0.596 | 0.67 | 0.707 | 0.286 | 0.215 | 0.189 | 0.212 | 0.639 | 0.613 | 0.68 | 0.76 | 0.237
NCI-H2228 | 0.195 | 0.241 | 0.309 | 0.296 | 0.289 | 0.348 | 0.296 | 0.351 | 0.355 | 0.234 | 0.71 | 0.447 | 0.686 | 0.379 | 0.322 | 0.325 | 0.427 | 0.606
